Results reported in ChEMBL document CHEMBL1201862, “PubChem BioAssay data set” (2004).
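Compound exposure: 48 hours, 5 concentrations, 96-well plates. Abbreviation: GI50, concentration required for 50% inhibition of growth.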 The source made the active and inactive calls. Cut-off read from the data, not from the text of the source: active = GI50 up to about 1.1 µM and inactive = higher.

Legend:
Test in all cases: inhibition of tumour cell growth, NCI panel, 48 h
A549 = tested on: A549
ACHN = tested on: ACHN
COLO 205 = tested on: COLO 205
HCC 2998 = tested on: HCC 2998
HT-29 = tested on: HT-29
IGROV-1 = tested on: IGROV-1
K562 = tested on: K562
M19-MEL = tested on: M19-MEL
OVCAR-5 = tested on: OVCAR-5
RPMI-8226 = tested on: RPMI-8226
RXF 393 = tested on: RXF 393
SK-MEL-2 = tested on: SK-MEL-2
SW-620 = tested on: SW-620
TK-10 = tested on: TK-10
U-251 = tested on: U-251
UACC-62 = tested on: UACC-62
DU-145 = tested on: DU-145
MDA-N = tested on: MDA-N
NCI/ADR-RES = tested on: NCI/ADR-RES
T47D = tested on: T47D

SMILES | GI50 (A549) | GI50 (ACHN) | GI50 (COLO 205) | GI50 (HCC 2998) | GI50 (HT-29) | GI50 (IGROV-1) | GI50 (K562) | GI50 (M19-MEL) | GI50 (OVCAR-5) | GI50 (RPMI-8226) | GI50 (RXF 393) | GI50 (SK-MEL-2) | GI50 (SW-620) | GI50 (TK-10) | GI50 (U-251) | GI50 (UACC-62) | GI50 (DU-145) | GI50 (MDA-N) | GI50 (NCI/ADR-RES) | GI50 (T47D)
CC#CC1C2CCCC1(CSc1ccccc1)NC(=O)O2 (stereo unspecified) | > 100 µM (inactive) | > 100 µM (inactive) | > 100 µM (inactive) | > 100 µM (inactive) | > 100 µM (inactive) | > 100 µM (inactive) | > 100 µM (inactive) | > 100 µM (inactive) | > 100 µM (inactive) | 63.8 µM (inactive) | > 100 µM (inactive) | > 100 µM (inactive) | > 100 µM (inactive) | > 100 µM (inactive) | > 100 µM (inactive) | > 100 µM (inactive) |  |  |  | 
COc1ccc(COCC(Cn2ccnc2)OCc2ccc(C(=O)O)cc2)cc1 (stereo unspecified) | > 100 µM (inactive) | > 100 µM (inactive) | > 100 µM (inactive) | > 100 µM (inactive) | > 100 µM (inactive) | > 100 µM (inactive) | > 100 µM (inactive) | > 100 µM (inactive) | > 100 µM (inactive) | > 100 µM (inactive) | > 100 µM (inactive) | > 100 µM (inactive) | > 100 µM (inactive) | > 100 µM (inactive) | > 100 µM (inactive) | > 100 µM (inactive) |  |  |  | 
COC(=O)C1Cc2c([nH]c3ccccc23)C(c2ccccc2O)N1Cc1ccccc1 (stereo unspecified) | 32 µM (inactive) | 28.4 µM (inactive) | 41.7 µM (inactive) | > 31.6 µM (inactive) | 28.2 µM (inactive) | 25.5 µM (inactive) | 37.5 µM (inactive) | 40.6 µM (inactive) | > 46.5 µM (inactive) | > 100 µM (inactive) | 20.8 µM (inactive) | 21.8 µM (inactive) | 39.5 µM (inactive) | 34.3 µM (inactive) | 20.6 µM (inactive) | 25.4 µM (inactive) |  |  |  | 
CSc1ccc(/C=C2/C[N+](C)(C)C/C(=C/c3ccc(SC)cc3)C2=O)cc1 | 21.9 µM (inactive) | 18 µM (inactive) | 5.18 µM (inactive) | 15.5 µM (inactive) |  | 0.185 µM (active) | 5.47 µM (inactive) | 6.25 µM (inactive) | 23.4 µM (inactive) | 2.93 µM (inactive) | 17 µM (inactive) | 20.1 µM (inactive) | 12.2 µM (inactive) | 50.7 µM (inactive) | 2.54 µM (inactive) | 0.168 µM (active) |  |  |  | 
Cc1ccccc1-n1c(C)nc2c1C(=O)c1ccccc1C2=O | 54.6 µM (inactive) | 53.3 µM (inactive) |  | 37.1 µM (inactive) | 37.2 µM (inactive) |  | 37.7 µM (inactive) | 22.8 µM (inactive) | 72.3 µM (inactive) |  | > 100 µM (inactive) | > 100 µM (inactive) | 40.5 µM (inactive) | > 100 µM (inactive) | 72.1 µM (inactive) | 47.1 µM (inactive) |  |  |  | 
N=C1C=CC(=C(c2ccc(N)cc2)c2ccc(N)cc2)C=C1 | 3.73 µM (inactive) | 8.17 µM (inactive) | 1.64 µM (inactive) | 4.93 µM (inactive) | 3.77 µM (inactive) | 9.86 µM (inactive) | 2.39 µM (inactive) | 4.13 µM (inactive) | 9.27 µM (inactive) | 2.29 µM (inactive) | 6.5 µM (inactive) | 2.9 µM (inactive) | 3.68 µM (inactive) | 10.2 µM (inactive) | 0.406 µM (active) | 3.87 µM (inactive) | 5.71 µM (inactive) | 4.84 µM (inactive) | 16.2 µM (inactive) | 0.968 µM (active)
